One series is described as follows: pKa. The format is physicochemical.
For series [1] the following is noted: commercially available neutral form; cited from earlier work.
The nature of series [2]: Administration of celecoxib compositions to dogs (plasma pharmacokinetics). The conditions noted are these: single oral dose, 5 mpk, male dogs.
Series [3] can be described thus: Pharmacokinetic studies in rats, 5 mg/kg oral doses. It counts as in vivo, male Sprague-Dawley rats. The conditions noted are these: gelatin capsule, sodium salt blended 1:4 with polyvinylpyrrolidone, compared with CELEBREX
The protocol:
The sodium salt form (from Example 6) was compared with CELEBREX powder in terms of absorption in rats (FIGS. 4A and 4B).
Solids were placed in size 9 gelatin capsules (Torpac) and dosed via gavage needle, followed by oral gavage of 1 mL water. CELEBREX granulation was transferred from commercial 200 mg capsules. The sodium salt was blended with polyvinylpyrrolidone (e.g. PovidoneK30) in a 1:4 mixture. The plots are averages of plasma levels at each of the time points from plasma of 5 rats.

For series [4] the following is noted: according to WO 01/78724; cited from earlier work.
Series [5] in a line: Solubility of celecoxib sodium salt in the presence of polyvinylpyrrolidone. It counts as physicochemical. The conditions noted are these: added to aqueous PVP, or water added to dry blend with PVP.
The next series in a line: Solubility in water. It counts as physicochemical.
Series [6] can be described thus: In vitro dissolution studies in simulated gastric fluid. It counts as physicochemical. The protocol: 1. […] The celecoxib salt was ground using mortar and pestle until fine powder was formed. […] 2. Formulation Preparation • a. Fresh PLURONIC excipient was dispensed into a mortar. If initially a solid at room temperature, the PLURONIC was ground until a smooth powder was formed. • b. If HPC was to be added, it was dispensed after the PLURONIC excipient. […] 3. Dissolution Assay • a. A water bath was set up at 37 degrees C. • b. Simulated gastric fluid in the fasted state (SGF) was prepared at pH 1.7 and diluted five times with deionized water. […] The simulated gastric fluid was diluted five times to simulate the effect of drinking a glass of water with the medication. The SGF was pre-heated to 37 degrees C. • c. The formulation was placed in a 20 mL scintillation vial. • d. A 10 mm x 3 mm stir bar was added. • e. Diluted SGF was added to the formulation. […] The vial was placed in the water bath and allowed to stir. • g. […] The first ⅔ of filtrate was discarded as waste and the last ⅓ was collected into an eppendorf tube. 0.1 mL of the collected filtrate was immediately transferred to an autosampler vial and diluted ten times with 0.9 mL of methanol. The autosampler vials were crimp sealed and submitted for content analysis using high performance liquid chromatography with ultraviolet detection. In Vitro Dissolution Studies of PLURONIC Excipients - Results: […]

Structures can show the parent of a compound that is named as a salt. A value given as a limit tells only on which side of the number the result lay.

For orientation: pKa means the negative logarithm of the acid dissociation constant. A high value points to a group that holds its proton tightly. For the compound `Cc1onc(-c2ccccc2)c1-c1ccc(S(N)(=O)=O)cc1` [Valdecoxib, 4-(5-methyl-3-phenyl-4-isoxazolyl)benzene sulfonamide], the pKa in the series “pKa” was ~11. Also, the “solubility in water (in words)” value in series [1] was “essentially insoluble in water”.
As to `Cc1ccc(-c2cc(C(F)(F)F)nn2-c2ccc(S(N)(=O)=O)cc2)cc1` [celecoxib sodium salt, sodium salt of 4-[5-(4-methylphenyl)-3-(trifluoromethyl)-1H-pyrazol-1-yl]benzenesulfonamide], the “maximum blood serum concentration reached faster than for celecoxib” value in series [2] is 40%. Also, the “peak level of the drug in plasma” value in series [3] was “faster peak level of the drug in plasma”.
Usually solubility stands for the dissolved amount per volume that the medium holds. As for `Cc1ccc(-c2cc(C(F)(F)F)nn2-c2ccc(S(N)(=O)=O)cc2)cc1` [celecoxib, 4-[5-(4-methylphenyl)-3-(trifluoromethyl)-1H-pyrazol-1-yl]benzenesulfonamide], in series [4], the “solubility in Transcutol P” value is recorded as 350 mg/g. In addition, the “dissolution in aqueous polyvinylpyrrolidone” value in series [5] is given as “did not dissolve”. In addition, the “solubility in water (in words)” value in series [1] is “essentially insoluble in water”. Also, in “Solubility in water”, the “ability to be maintained as a supersaturated solution” value is “cannot be maintained as a supersaturated solution for any appreciable time” and the solubility is < 1 µg/mL.
With `CCOCCOCCO` [Transcutol P], the “effect on dissolution of celecoxib free acid” value in series [6] was “does not enhance dissolution of the free acid”.

The values above are taken from patent publication US20060052432A1, “Pharmaceutical compositions with improved dissolution” (priority 2002, published 2006).
